Species: Rattus norvegicus
Test: DrugMatrix - Regimen: Daily Repeat
Type: toxicity, organism-based, Sprague-Dawley
Parameters: regimen Daily Repeat, gender Male, age 6-8 weeks
Conditions: in vivo, po, route oral GAVAGE, […]; for ABSOLUTE BASOPHIL / ABSOLUTE EOSINOPHIL / ABSOLUTE LYMPHOCYTE / ABSOLUTE MONOCYTE / ABSOLUTE SEGMENTED NEUTROPHIL / BASOPHIL / EOSINOPHIL / ERYTHROCYTE COUNT / HEMATOCRIT / HEMOGLOBIN / LEUKOCYTE COUNT / LYMPHOCYTE / MEAN CORPUSCULAR HEMOGLOBIN / MEAN CORPUSCULAR HEMOGLOBIN CONCENTRATION / MEAN CORPUSCULAR VOLUME / MONOCYTE / NEUTROPHIL / NUCLEATED RED BLOOD CELLS / PLATELET COUNT: tissue Blood; for ALANINE AMINOTRANSFERASE / ALBUMIN / ALKALINE PHOSPHATASE / ASPARTATE AMINOTRANSFERASE / BLOOD UREA NITROGEN / CARBON DIOXIDE / CHLORIDE / CHOLESTEROL / CREATINE PHOSPHOKINASE / CREATININE / GLUCOSE / LACTATE DEHYDROGENASE / LIPASE / PHOSPHORUS / POTASSIUM / SODIUM / TOTAL BILIRUBIN / TOTAL PROTEIN / URIC ACID: tissue Plasma
[1] = 10 mg/kg, 72 h, dose level Low, time 3 day
[2] = 10 mg/kg, 120 h, dose level Low, time 5 day
[3] = 75 mg/kg, 72 h, dose level High, time 3 day
[4] = 75 mg/kg, 120 h, dose level High, time 5 day

NC(=O)N1C(=O)/C(=C(\O)c2cccs2)c2cc(Cl)ccc21 [TENIDAP]
ABSOLUTE BASOPHIL [1]: 0 CELLS/uL
ABSOLUTE EOSINOPHIL [1]: 204 CELLS/uL
ABSOLUTE LYMPHOCYTE [1]: 13523 CELLS/uL
ABSOLUTE MONOCYTE [1]: 155.33 CELLS/uL
ABSOLUTE SEGMENTED NEUTROPHIL [1]: 1651 CELLS/uL
BASOPHIL [1]: 0%
EOSINOPHIL [1]: 1.33%
ERYTHROCYTE COUNT [1]: 5.32 x10E6/uL
HEMATOCRIT [1]: 33.53%
HEMOGLOBIN [1]: 13.33 G/DL
LEUKOCYTE COUNT [1]: 15.53 x10E3/uL
LYMPHOCYTE [1]: 86.67%
MEAN CORPUSCULAR HEMOGLOBIN [1]: 25.03 pg
MEAN CORPUSCULAR HEMOGLOBIN CONCENTRATION [1]: 39.73 G/DL
MEAN CORPUSCULAR VOLUME [1]: 62.97 fL
MONOCYTE [1]: 1%
NEUTROPHIL [1]: 11%
NUCLEATED RED BLOOD CELLS [1]: 0 /100WBC
PLATELET COUNT [1]: 1066.67 x10E3/uL
ALANINE AMINOTRANSFERASE [1]: 83.33 u/L
ALBUMIN [1]: 3.87 G/DL
ALKALINE PHOSPHATASE [1]: 429.33 u/L
ASPARTATE AMINOTRANSFERASE [1]: 109.67 u/L
BLOOD UREA NITROGEN [1]: 11 mg/dL
CARBON DIOXIDE [1]: 23.67 mmol/L
CHLORIDE [1]: 102.67 MEQ/L
CHOLESTEROL [1]: 63.67 mg/dL
CREATINE PHOSPHOKINASE [1]: 779.67 u/L
CREATININE [1]: 0.2 mg/dL
GLUCOSE [1]: 169 mg/dL
LACTATE DEHYDROGENASE [1]: 223.67 u/L
LIPASE [1]: 12 u/L
PHOSPHORUS [1]: 11.47 mg/dL
POTASSIUM [1]: 5.98 MEQ/L
SODIUM [1]: 143.97 MEQ/L
TOTAL BILIRUBIN [1]: 0.17 mg/dL
TOTAL PROTEIN [1]: 5.27 G/DL
URIC ACID [1]: 1.43 mg/dL
ABSOLUTE BASOPHIL [2]: 0 CELLS/uL
ABSOLUTE EOSINOPHIL [2]: 83.67 CELLS/uL
ABSOLUTE LYMPHOCYTE [2]: 10624.67 CELLS/uL
ABSOLUTE MONOCYTE [2]: 83.67 CELLS/uL
ABSOLUTE SEGMENTED NEUTROPHIL [2]: 1674.67 CELLS/uL
BASOPHIL [2]: 0%
EOSINOPHIL [2]: 0.67%
ERYTHROCYTE COUNT [2]: 5.4 x10E6/uL
HEMATOCRIT [2]: 33.6%
HEMOGLOBIN [2]: 13.33 G/DL
LEUKOCYTE COUNT [2]: 12.47 x10E3/uL
LYMPHOCYTE [2]: 85.33%
MEAN CORPUSCULAR HEMOGLOBIN [2]: 24.7 pg
MEAN CORPUSCULAR HEMOGLOBIN CONCENTRATION [2]: 39.67 G/DL
MEAN CORPUSCULAR VOLUME [2]: 62.27 fL
MONOCYTE [2]: 0.67%
NEUTROPHIL [2]: 13.33%
NUCLEATED RED BLOOD CELLS [2]: 0 /100WBC
PLATELET COUNT [2]: 1241 x10E3/uL
ALANINE AMINOTRANSFERASE [2]: 56.33 u/L
ALBUMIN [2]: 4.13 G/DL
ALKALINE PHOSPHATASE [2]: 448.67 u/L
ASPARTATE AMINOTRANSFERASE [2]: 103.33 u/L
BLOOD UREA NITROGEN [2]: 13 mg/dL
CARBON DIOXIDE [2]: 33.67 mmol/L
CHLORIDE [2]: 100.33 MEQ/L
CHOLESTEROL [2]: 58.33 mg/dL
CREATINE PHOSPHOKINASE [2]: 442.67 u/L
CREATININE [2]: 0.21 mg/dL
GLUCOSE [2]: 155 mg/dL
LACTATE DEHYDROGENASE [2]: 736.33 u/L
LIPASE [2]: 11 u/L
PHOSPHORUS [2]: 11.1 mg/dL
POTASSIUM [2]: 6.31 MEQ/L
SODIUM [2]: 144.37 MEQ/L
TOTAL BILIRUBIN [2]: 0.17 mg/dL
TOTAL PROTEIN [2]: 5.93 G/DL
URIC ACID [2]: 1.33 mg/dL
ABSOLUTE BASOPHIL [3]: 0 CELLS/uL
ABSOLUTE EOSINOPHIL [3]: 72 CELLS/uL
ABSOLUTE LYMPHOCYTE [3]: 18447.67 CELLS/uL
ABSOLUTE MONOCYTE [3]: 586.33 CELLS/uL
ABSOLUTE SEGMENTED NEUTROPHIL [3]: 3327.33 CELLS/uL
BASOPHIL [3]: 0%
EOSINOPHIL [3]: 0.33%
ERYTHROCYTE COUNT [3]: 5.15 x10E6/uL
HEMATOCRIT [3]: 32.13%
HEMOGLOBIN [3]: 13.03 G/DL
LEUKOCYTE COUNT [3]: 22.43 x10E3/uL
LYMPHOCYTE [3]: 82%
MEAN CORPUSCULAR HEMOGLOBIN [3]: 25.3 pg
MEAN CORPUSCULAR HEMOGLOBIN CONCENTRATION [3]: 40.63 G/DL
MEAN CORPUSCULAR VOLUME [3]: 62.33 fL
MONOCYTE [3]: 2.67%
NEUTROPHIL [3]: 15%
NUCLEATED RED BLOOD CELLS [3]: 0 /100WBC
PLATELET COUNT [3]: 1275.33 x10E3/uL
ALANINE AMINOTRANSFERASE [3]: 41.67 u/L
ALBUMIN [3]: 3.37 G/DL
ALKALINE PHOSPHATASE [3]: 301 u/L
ASPARTATE AMINOTRANSFERASE [3]: 107.33 u/L
BLOOD UREA NITROGEN [3]: 11.33 mg/dL
CARBON DIOXIDE [3]: 22.33 mmol/L
CHLORIDE [3]: 100.33 MEQ/L
CHOLESTEROL [3]: 64.67 mg/dL
CREATINE PHOSPHOKINASE [3]: 1284.33 u/L
CREATININE [3]: 0.21 mg/dL
GLUCOSE [3]: 168.67 mg/dL
LACTATE DEHYDROGENASE [3]: 492.67 u/L
LIPASE [3]: 10 u/L
PHOSPHORUS [3]: 11.63 mg/dL
POTASSIUM [3]: 6.52 MEQ/L
SODIUM [3]: 144.2 MEQ/L
TOTAL BILIRUBIN [3]: 0.13 mg/dL
TOTAL PROTEIN [3]: 5.17 G/DL
URIC ACID [3]: 2.97 mg/dL
ABSOLUTE BASOPHIL [4]: 0 CELLS/uL
ABSOLUTE EOSINOPHIL [4]: 26.67 CELLS/uL
ABSOLUTE LYMPHOCYTE [4]: 9823.33 CELLS/uL
ABSOLUTE MONOCYTE [4]: 49.33 CELLS/uL
ABSOLUTE SEGMENTED NEUTROPHIL [4]: 1634 CELLS/uL
BASOPHIL [4]: 0%
EOSINOPHIL [4]: 0.33%
ERYTHROCYTE COUNT [4]: 4.78 x10E6/uL
HEMATOCRIT [4]: 30.53%
HEMOGLOBIN [4]: 12.13 G/DL
LEUKOCYTE COUNT [4]: 11.53 x10E3/uL
LYMPHOCYTE [4]: 87.67%
MEAN CORPUSCULAR HEMOGLOBIN [4]: 25.37 pg
MEAN CORPUSCULAR HEMOGLOBIN CONCENTRATION [4]: 39.73 G/DL
MEAN CORPUSCULAR VOLUME [4]: 63.83 fL
MONOCYTE [4]: 0.67%
NEUTROPHIL [4]: 11.33%
NUCLEATED RED BLOOD CELLS [4]: 0.33 /100WBC
PLATELET COUNT [4]: 1185.67 x10E3/uL
ALANINE AMINOTRANSFERASE [4]: 35.67 u/L
ALBUMIN [4]: 3.53 G/DL
ALKALINE PHOSPHATASE [4]: 211 u/L
ASPARTATE AMINOTRANSFERASE [4]: 95 u/L
BLOOD UREA NITROGEN [4]: 13.67 mg/dL
CARBON DIOXIDE [4]: 33 mmol/L
CHLORIDE [4]: 103.33 MEQ/L
CHOLESTEROL [4]: 68 mg/dL
CREATINE PHOSPHOKINASE [4]: 655 u/L
CREATININE [4]: 0.26 mg/dL
GLUCOSE [4]: 158 mg/dL
LACTATE DEHYDROGENASE [4]: 243 u/L
LIPASE [4]: 11 u/L
PHOSPHORUS [4]: 9.87 mg/dL
POTASSIUM [4]: 4.94 MEQ/L
SODIUM [4]: 147 MEQ/L
TOTAL BILIRUBIN [4]: 0.2 mg/dL
TOTAL PROTEIN [4]: 5.43 G/DL
URIC ACID [4]: 1.03 mg/dL

Reference: ChEMBL document CHEMBL3885881, “DrugMatrix”
